Data reported in ChEMBL document CHEMBL1129577, “Identification of a novel oxazolidinone (U-100480) with potent antimycobacterial activity” (1996).

Key:
[1] = system: Mycobacterium tuberculosis; test: In vitro anti-mycobacterial activity against multiple resistant strains of Mycobacterium tuberculosis at 0.125 ug/mL; format: functional
[2] = system: Mycobacterium tuberculosis; test: In vitro anti-mycobacterial activity against multiple resistant strains of Mycobacterium tuberculosis at 0.50 ug/mL; format: functional

CC(=O)NC[C@H]1CN(c2ccc(N3CCSCC3)c(F)c2)C(=O)O1 [SUTEZOLID]
No. of strains [1]: 3 | No. of strains [2]: 2

CC(=O)NC[C@H]1CN(c2ccc(N3CCS(=O)(=O)CC3)c(F)c2)C(=O)O1
No. of strains [2]: 4
